Data as given in PubChem BioAssay AID1259411 (Chemical Carcinogenesis Research Information System (CCRIS), 2018).
Calls of active or inactive are those of the source. No rule for the calls is given here.

Test system: rodent carcinogenicity bioassays, tumor incidence
Assay: CCRIS carcinogenicity studies
Method in brief: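 NCI-built, expert-reviewed records of carcinogenicity and related test outcomes (mutagenicity, tumor promotion/inhibition) compiled from published and report sources, historical span 1985-2011, not updated.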

S=C1NCCN1
carcinogen call (Species: MOUSE, Strain/Sex: B6AKF1/MALE,FEMALE, Route: GAVAGE/ORAL, Dose: 215 MG/KG IN GELATIN FROM DAY 7-28 OF LIFE THEN 646 PPM IN DIET, Tumor Site: Type of Lesion: LIVER: HEPATOMA, LYMPHATIC SYSTEM: LYMPHOMA): active; positive | carcinogen call (Species: MOUSE, Strain/Sex: B6C3F1/FEMALE, Route: ORAL, Dose: 0, 100, 330, 1000 PPM IN FEED FOR 24 MO, ADMINISTRATION BEGUN AT 8 WK OF AGE TO ANIMALS EXPOSED PERINATALLY BY ORAL, Dose: 0, 100, 330, 1000 PPM IN FEED FOR 24 MO, ADMINISTRATION BEGUN AT 8 WK OF AGE TO ANIMALS EXPOSED PERINATALLY BY ORAL, Tumor Site: Type of Lesion: LIVER: HEPATOCELLULAR ADENOMA, HEPATOCELLULAR CARCINOMA, PITUITARY GLAND, PARS DISTALIS: ADENOMA, THYROID GLAND: FOLLICU, Tumor Site: Type of Lesion: LIVER: HEPATOCELLULAR ADENOMA, HEPATOCELLULAR CARCINOMA, PITUITARY GLAND, PARS DISTALIS: ADENOMA, THYROID GLAND: FOLLICU): active; positive | carcinogen call (Species: MOUSE, Strain/Sex: B6C3F1/FEMALE, Route: ORAL, Dose: 0, 330, 1000 PPM IN FEED FOR 24 MO (STUDY DURATION: 2 YR), Dose: 0, 330, 1000 PPM IN FEED FOR 24 MO (STUDY DURATION: 2 YR), Tumor Site: Type of Lesion: LIVER: HEPATOCELLULAR ADENOMA, HEPATOCELLULAR CARCINOMA, PITUITARY GLAND, PARS DISTALIS: ADENOMA, THYROID GLAND: FOLLICU, Tumor Site: Type of Lesion: LIVER: HEPATOCELLULAR ADENOMA, HEPATOCELLULAR CARCINOMA, PITUITARY GLAND, PARS DISTALIS: ADENOMA, THYROID GLAND: FOLLICU): active; positive | carcinogen call (Species: MOUSE, Strain/Sex: B6C3F1/MALE,FEMALE, Route: GAVAGE/ORAL, Dose: 215 MG/KG IN GELATIN FROM DAY 7-28 OF LIFE THEN 646 PPM IN DIET, Tumor Site: Type of Lesion: LIVER: HEPATOMA, LYMPHATIC SYSTEM: LYMPHOMA): active; positive | carcinogen call (Species: MOUSE, Strain/Sex: B6C3F1/MALE, Route: ORAL, Dose: 0, 100, 330, 1000 PPM IN FEED FOR 24 MO, ADMINISTRATION BEGUN AT 8 WK OF AGE TO ANIMALS EXPOSED PERINATALLY BY ORAL, Dose: 0, 100, 330, 1000 PPM IN FEED FOR 24 MO, ADMINISTRATION BEGUN AT 8 WK OF AGE TO ANIMALS EXPOSED PERINATALLY BY ORAL, Tumor Site: Type of Lesion: LIVER: HEPATOCELLULAR CARCINOMA, HEPATOCELLULAR ADENOMA OR CARCINOMA, THYROID GLAND: FOLLICULAR CELL ADENOMA, FOLLICULAR): active; positive | carcinogen call (Species: MOUSE, Strain/Sex: B6C3F1/MALE, Route: ORAL, Dose: 0, 330, 1000 PPM IN FEED FOR 24 MO (STUDY DURATION: 2 YR), Dose: 0, 330, 1000 PPM IN FEED FOR 24 MO (STUDY DURATION: 2 YR), Tumor Site: Type of Lesion: LIVER: HEPATOCELLULAR CARCINOMA, PITUITARY GLAND, PARS DISTALIS: ADENOMA, THYROID GLAND: FOLLICULAR CELL ADENOMA, Tumor Site: Type of Lesion: LIVER: HEPATOCELLULAR CARCINOMA, PITUITARY GLAND, PARS DISTALIS: ADENOMA, THYROID GLAND: FOLLICULAR CELL ADENOMA): active; positive | carcinogen call (Species: RAT, Strain/Sex: F344/FEMALE, Route: ORAL, Dose: 0, 25, 83, 250 PPM IN FEED FOR 24 MO, ADMINISTRATION BEGUN AT 8 WK OF AGE TO ANIMALS EXPOSED PERINATALLY BY ORAL DOS, Dose: 0, 25, 83, 250 PPM IN FEED FOR 24 MO, ADMINISTRATION BEGUN AT 8 WK OF AGE TO ANIMALS EXPOSED PERINATALLY BY ORAL DOS, Tumor Site: Type of Lesion: THYROID GLAND: FOLLICULAR CELL ADENOMA, FOLLICULAR CELL CARCINOMA): active; positive | carcinogen call (Species: RAT, Strain/Sex: F344/FEMALE, Route: ORAL, Dose: 0, 83, 250 PPM IN FEED FOR 24 MO (STUDY DURATION: 2 YR), Dose: 0, 83, 250 PPM IN FEED FOR 24 MO (STUDY DURATION: 2 YR), Tumor Site: Type of Lesion: THYROID GLAND: FOLLICULAR CELL ADENOMA, FOLLICULAR CELL CARCINOMA): active; positive | carcinogen call (Species: RAT, Strain/Sex: F344/MALE, Route: ORAL, Dose: 0, 25, 83, 250 PPM IN FEED FOR 24 MO, ADMINISTRATION BEGUN AT 8 WK OF AGE TO ANIMALS EXPOSED PERINATALLY BY DOSES TO, Dose: 0, 25, 83, 250 PPM IN FEED FOR 24 MO, ADMINISTRATION BEGUN AT 8 WK OF AGE TO ANIMALS EXPOSED PERINATALLY BY DOSES TO, Tumor Site: Type of Lesion: THYROID GLAND: FOLLICULAR CELL ADENOMA, FOLLICULAR CELL CARCINOMA): active; positive | carcinogen call (Species: RAT, Strain/Sex: F344/MALE, Route: ORAL, Dose: 0, 83, 250 PPM IN FEED FOR 24 MO (STUDY DURATION: 2 YR), Dose: 0, 83, 250 PPM IN FEED FOR 24 MO (STUDY DURATION: 2 YR), Tumor Site: Type of Lesion: THYROID GLAND: FOLLICULAR CELL ADENOMA, FOLLICULAR CELL CARCINOMA): active; positive | carcinogen call (Species: RAT, Strain/Sex: STRAIN-CD/MALE,FEMALE, Route: ORAL, Dose: 175, 350 PPM IN DIET FOR 78 WK, Tumor Site: Type of Lesion: THYROID GLAND: FOLLICULAR CARCINOMA): active; positive

CCN(C)N=O
carcinogen call (Species: HAMSTER, Strain/Sex: SYRIAN/MALE, Route: GAVAGE, Dose: 0, 1.8 MG/KG 1/WK FOR 23-30 WK (TOTAL DOSE: 0; 0.53 MMOL) (STUDY DURATION: LIFETIME), Dose: 0, 1.8 MG/KG 1/WK FOR 23-30 WK (TOTAL DOSE: 0; 0.53 MMOL) (STUDY DURATION: LIFETIME), Tumor Site: Type of Lesion: LIVER: HEPATOCELLULAR CARCINOMA, HEPATOCELLULAR ADENOMA, CHOLANGIOCARCINOMA, CHOLANGIOMA, HEMANGIOSARCOMA, NASAL MUCOSA:): active; positive | carcinogen call (Species: RAT, Strain/Sex: F344/FEMALE, Route: GAVAGE, Dose: 0, 4.6 MG/WK FOR A TOTAL DOSE OF 1.4 MMOL (STUDY DURATION: 40 WK), Tumor Site: Type of Lesion: LIVER: TUMOR, LUNG: TUMOR): active; positive | carcinogen call (Species: RAT, Strain/Sex: F344/FEMALE, Route: INTRAVESICULAR, Dose: 0, 2.3 MG IN 0.2 ML ETHANOL: DEIONIZED WATER (1:3) 2/WK FOR 30 WK (TOTAL DOSE 1.6 MMOL) (STUDY DURATION: LIFESPAN), Tumor Site: Type of Lesion: LIVER: HEMANGIOSARCOMA, LUNG: TUMOR, KIDNEY: TUMOR, Tumor Site: Type of Lesion: LIVER: HEMANGIOSARCOMA, LUNG: TUMOR, KIDNEY: TUMOR): active; positive | carcinogen call (Species: RAT, Strain/Sex: F344/MALE, Route: GAVAGE, Dose: 0, 4.6 MG/WK FOR A TOTAL DOSE OF 1.6 MMOL (STUDY DURATION: 60 WK), Tumor Site: Type of Lesion: LIVER: TUMOR, LUNG: TUMOR, NASAL MUCOSA: TUMOR, Tumor Site: Type of Lesion: LIVER: TUMOR, LUNG: TUMOR, NASAL MUCOSA: TUMOR): active; positive

Nc1ccc(/C=C/c2ccccc2)cc1
carcinogen call (Species: RAT, Strain/Sex: HOLTZMAN/FEMALE, Route: ORAL, Dose: 0, 0.0038% IN DIET FOR 13 WK BEGINNING AT WEANING (STUDY DURATION: 40 WK), Tumor Site: Type of Lesion: EAR DUCT GLAND: CARCINOMA): active; positive | carcinogen call (Species: RAT, Strain/Sex: HOLTZMAN/FEMALE, Route: SUBCUTANEOUS, Dose: 0. 5.3 UMOL SUSPENDED IN 0.2 ML TRICAPRYLIN 1/WK FOR 5 WK (STUDY DURATION: 10 MO), Tumor Site: Type of Lesion: MAMMARY GLAND: CARCINOMA): active; positive

COc1ccc([N+](=O)[O-])cc1N
carcinogen call (Species: MOUSE, Strain/Sex: B6C3F1/FEMALE, Route: ORAL, Dose: 0, 0.8% IN DIET FOR 78 WK (STUDY DURATION: 97 WK)): inactive; negative | carcinogen call (Species: MOUSE, Strain/Sex: B6C3F1/FEMALE, Route: ORAL, Dose: 0, 1.6% IN DIET FOR 15 WK FOLLOWING BY 0.4% FOR LAST 63 WK (STUDY DURATION: 97 WK), Tumor Site: Type of Lesion: LIVER: HEPATOCELLULAR CARCINOMA): active; positive | carcinogen call (Species: MOUSE, Strain/Sex: B6C3F1/MALE, Route: ORAL, Dose: 0, 0.8% IN DIET FOR 78 WK (STUDY DURATION: 97 WK), Tumor Site: Type of Lesion: LIVER: HEPATOCELLULAR CARCINOMA): equivocal | carcinogen call (Species: MOUSE, Strain/Sex: B6C3F1/MALE, Route: ORAL, Dose: 0, 1.6% IN DIET FOR FIRST 15 WK FOLLOWING BY 0.4% FOR 63 WK (STUDY DURATION: 97 WK)): inactive; negative | carcinogen call (Species: RAT, Strain/Sex: F344/FEMALE, Route: ORAL, Dose: 0, 0.4, 0.8% IN DIET FOR 78 WK (STUDY DURATION: 106-108 WK), Dose: 0, 0.4, 0.8% IN DIET FOR 78 WK (STUDY DURATION: 106-108 WK), Tumor Site: Type of Lesion: CLITORAL GLAND: CARCINOMA (NOS), CARCINOMA (NOS) OR SQUAMOUS CELL CARCINOMA, ADENOMA (NOS) OR PAPILLARY ADENOMA OR CARCI): active; positive | carcinogen call (Species: RAT, Strain/Sex: F344/MALE, Route: ORAL, Dose: 0, 0.4, 0.8% IN DIET FOR 78 WK (STUDY DURATION: 102-109 WK), Dose: 0, 0.4, 0.8% IN DIET FOR 78 WK (STUDY DURATION: 102-109 WK), Tumor Site: Type of Lesion: INTEGUMENTARY SYSTEM (SKIN): BASAL CELL CARCINOMA, TRICHOEPITHELIOMA;INTEGUMENTARY SYSTEM (EXCLUDING SKIN OF EAR): SQUAM): active; positive
